From publication PMC7414198, “Genomic and enzymatic evidence of acetogenesis by anaerobic methanotrophic archaea” (Nature Communications, 2020)
Read-outs that look alike come from different tables or passages of the source.

How the values were obtained:
[1] = tested on: acetyl-CoA synthetase (Acs) from ANME-2a; conditions: acetyl-CoA-forming direction; concentrations of ATP and CoA not given
[2] = tested on: T1, ADP-forming acetate-CoA ligase (Acd) from ANME-2a; experiment: DTNB assay of HSCoA release, […] nm; assay type: biochemical, ANME-2 cluster archaeon (ANME-2a, uncultured); conditions: acetate-forming direction; 2 mM ADP, 40 mM K3PO4, 1 mM MgCl2, 20 mM Tris-HCl pH 8.0
T1 construct: alpha (55 kDa) and beta (25 kDa) subunits, codon-optimised synthetic genes in pET-28a (NdeI/BamHI and BamHI/SalI, RBS before beta), E. coli BL21(DE3)-groEL, Ni-NTA purified

[3] = tested on: T2, acetyl-CoA synthetase (Acs) from ANME-2a; experiment: DTNB assay of HSCoA release, […] nm; assay type: biochemical, ANME-2 cluster archaeon (ANME-2a, uncultured); conditions: acetate-forming direction; 2 mM AMP, 2 mM PPi, 1.25 M KCl, 1 mM MgCl2, 20 mM Tris-HCl pH 8.0
T2 construct: codon-optimised synthetic gene in pET-28a (NdeI/BamHI), E. coli Rosetta(DE3), Ni-NTA purified, 70 kDa

Km [1] | Km [2] | Km [3] | SMILES
490 µM | – | – | CC(=O)O [acetate]
– | 31.3 µM | 8.5 µM | CC(=O)SCCNC(=O)CCNC(=O)[C@H](O)C(C)(C)COP(=O)(O)OP(=O)(O)OC[C@H]1O[C@@H](n2cnc3c(N)ncnc32)[C@H](O)[C@@H]1OP(=O)(O)O [acetyl-CoA]
